Experimental data as given in PubChem BioAssay AID330 (DTP/NCI, 2004).
Values joined by “and” are separate entries in the source; they are usually repeats but may differ in a detail not shown here. Equal entries are not always repeated. Toxic doses and inconclusive results are not listed.

Test system: P388 leukemia ip, CD2F1 mice, survival T/C
Experiment: NCI In Vivo Anticancer Drug Screen. Data for tumor model P388 Leukemia (intraperitoneal) in CD2F1 (CDF1) mice
Conditions: endpoint: median survival time, higher = longer survival
Method in brief: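 Mice carrying the transplanted tumor received test compound or vehicle. Survival was recorded in each group, and the value is the treated-group measurement divided by that of the vehicle-treated control group.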

[1] = dose: 25.0 mg/kg/injection, schedule: Q01DX009 (ip), vehicle: saline
[2] = dose: 100.0 mg/kg/injection, schedule: Q04DX002 (ip), vehicle: saline with Tween-80
[3] = dose: 200.0 mg/kg/injection, schedule: Q04DX002 (ip), vehicle: saline with Tween-80
[4] = dose: 400.0 mg/kg/injection, schedule: Q04DX002 (ip), vehicle: saline with Tween-80
[5] = dose: 60.0 mg/kg/injection, schedule: Q01DX005 (ip), vehicle: saline with Tween-80
[6] = dose: 120.0 mg/kg/injection, schedule: Q01DX005 (ip), vehicle: saline with Tween-80
[7] = dose: 25.0 mg/kg/injection, schedule: Q01DX009 (ip), vehicle: saline with Tween-80
[8] = dose: 50.0 mg/kg/injection, schedule: Q01DX009 (ip), vehicle: saline with Tween-80
[9] = dose: 100.0 mg/kg/injection, schedule: Q01DX009 (ip), vehicle: saline with Tween-80
[10] = dose: 50.0 mg/kg/injection, schedule: Q01DX005 (ip), vehicle: Klucel (hydroxypropylcellulose) (HPC)
[11] = dose: 100.0 mg/kg/injection, schedule: Q01DX005 (ip), vehicle: Klucel (hydroxypropylcellulose) (HPC)
[12] = dose: 200.0 mg/kg/injection, schedule: Q01DX005 (ip), vehicle: Klucel (hydroxypropylcellulose) (HPC)

`OCCSCc1cnc2ccccn12` was tested, and the T/C [1] was 105 % of control and the T/C (dose: 50.0 mg/kg/injection, schedule: Q01DX009 (ip), vehicle: saline) was 100 % of control.
`O=C1CSC(c2cc(Cl)ccc2[N+](=O)[O-])N1c1nncs1` (stereo not drawn) was tested, and the T/C [2] was 87 % of control, the T/C [3] was 87 % of control and the T/C [4] was 88 % of control.
In the case of `S=c1sc(-c2ccc(Cl)cc2)nn1CSc1nc2ccccc2o1`, the T/C [5] was 97 % of control, the T/C [6] was 101 % of control and the T/C (dose: 240.0 mg/kg/injection, schedule: Q01DX005 (ip), vehicle: saline with Tween-80) was 95 % of control.
`Cc1nn(C(=O)c2ccncc2)c(C)c1N=Nc1nc2ccc([N+](=O)[O-])cc2s1` was tested, and the T/C [2] was 97 % of control and the T/C [3] was 94 % of control.
With `COC1/C=C/OC2(C)Oc3c(C)c(O)c4c(O)c(c(/C=N/N5C(C)CN(Cc6ccc(NC(C)=O)cc6)CC5C)c(O)c4c3C2=O)NC(=O)C(C)=C/C=C/C(C)C(O)C(C)C(O)C(C)C(OC(C)=O)C1C` (stereo not drawn) the T/C (dose: 12.5 mg/kg/injection, schedule: Q01DX009 (ip), vehicle: suspension in saline) was 110 % of control, the T/C [7] was 119 % of control and the T/C (dose: 25.0 mg/kg/injection, schedule: Q01DX009 (ip), vehicle: suspension in saline) was 110 % of control. The T/C [8] was 99 % of control, the T/C (dose: 50.0 mg/kg/injection, schedule: Q01DX009 (ip), vehicle: suspension in saline) was 108 % of control and the T/C [9] was 99 % of control and 103 % of control. The T/C (dose: 100.0 mg/kg/injection, schedule: Q01DX009 (ip), vehicle: suspension in saline) was 99 % of control and the T/C (dose: 200.0 mg/kg/injection, schedule: Q01DX009 (ip), vehicle: saline with Tween-80) was 110 % of control and 119 % of control.
`COc1ccc(C(=O)C2C(C(=O)c3ccccc3)C23C(=O)N(C)c2ccccc23)cc1` (stereo not drawn) was tested, and the T/C (dose: 25.0 mg/kg/injection, schedule: Q04DX002 (ip), vehicle: saline with Tween-80) was 101 % of control, the T/C (dose: 50.0 mg/kg/injection, schedule: Q04DX002 (ip), vehicle: saline with Tween-80) was 100 % of control and the T/C [2] was 98 % of control.
For `[Cl][Sn]([c]1ccccc1)([c]1ccccc1)[c]1ccccc1`, the T/C (dose: 2.5 mg/kg/injection, schedule: Q01DX009 (ip), vehicle: saline) was 100 % of control and the T/C (dose: 5.0 mg/kg/injection, schedule: Q01DX009 (ip), vehicle: saline) was 115 % of control.
`COc1ccc(CN2CCc3cc(OC)c(O)cc3C2)cc1O` was tested, and the T/C (dose: 100.0 mg/kg/injection, schedule: Q01DX001 (ip), vehicle: saline with Tween-80) was 94 % of control and the T/C (dose: 200.0 mg/kg/injection, schedule: Q01DX001 (ip), vehicle: saline with Tween-80) was 98 % of control.
In the case of `CCOC(=O)c1sc(SC)c2c(N)nc(C)nc12`, the T/C (dose: 50.0 mg/kg/injection, schedule: Q01DX005 (ip), vehicle: saline with Tween-80) was 98 % of control, the T/C (dose: 100.0 mg/kg/injection, schedule: Q01DX005 (ip), vehicle: saline with Tween-80) was 94 % of control and the T/C (dose: 200.0 mg/kg/injection, schedule: Q01DX005 (ip), vehicle: saline with Tween-80) was 95 % of control.
`COc1ccc(CCN2C(=O)CCC3=C2CCC3=O)cc1OC` was tested, and the T/C (dose: 25.0 mg/kg/injection, schedule: Q01DX005 (ip), vehicle: Klucel (hydroxypropylcellulose) (HPC)) was 100 % of control, the T/C [10] was 98 % of control and the T/C [11] was 100 % of control. The T/C [12] was 106 % of control.
In the case of `O=C1C=C(N2CC2)c2ccccc2C1=O`, the T/C (dose: 6.25 mg/kg/injection, schedule: Q01DX009 (ip), vehicle: saline with Tween-80) was 118 % of control, the T/C (dose: 6.25 mg/kg/injection, schedule: Q04DX003 (ip), vehicle: saline with Tween-80) was 110 % of control and the T/C (dose: 8.33 mg/kg/injection, schedule: Q01DX009 (ip), vehicle: saline with Tween-80) was 118 % of control. The T/C (dose: 12.5 mg/kg/injection, schedule: Q04DX003 (ip), vehicle: saline with Tween-80) was 120 % of control.
In the case of `O=C(/C=C/c1ccc(OCC2CO2)cc1)c1cc2ccccc2nc1Cl` (stereo not drawn), the T/C [2] was 100 % of control, the T/C [3] was 100 % of control and the T/C [4] was 100 % of control.
For `O=C(CN1CCCCC1)c1c(-c2ccccc2)[nH]c2ccccc12`, the T/C (dose: 100.0 mg/kg/injection, schedule: Q04DX003 (ip), vehicle: saline) was 108 % of control, the T/C (dose: 200.0 mg/kg/injection, schedule: Q04DX003 (ip), vehicle: saline) was 99 % of control and the T/C (dose: 400.0 mg/kg/injection, schedule: Q04DX003 (ip), vehicle: saline) was 93 % of control.
`Cc1c(-c2ccccc2)ccnc1/C=N/NC(=S)NCc1cccnc1` was tested, and the T/C (dose: 12.5 mg/kg/injection, schedule: Q01DX009 (ip), vehicle: saline with Tween-80) was 98 % of control, the T/C [7] was 96 % of control and the T/C [8] was 111 % of control and 122 % of control. The T/C [9] was 88 % of control.
In the case of `O=C(NC(c1ccccc1)c1ccccc1)OCc1c2ccccc2cc2ccccc12`, the T/C (dose: 50.0 mg/kg/injection, schedule: Q01DX009 (ip), vehicle: Klucel (hydroxypropylcellulose) (HPC)) was 88 % of control, the T/C (dose: 100.0 mg/kg/injection, schedule: Q01DX009 (ip), vehicle: Klucel (hydroxypropylcellulose) (HPC)) was 100 % of control and the T/C (dose: 200.0 mg/kg/injection, schedule: Q01DX009 (ip), vehicle: Klucel (hydroxypropylcellulose) (HPC)) was 100 % of control.
In the case of `N#CC1CC=CCN1CCc1ccccc1` (stereo not drawn), the T/C (dose: 12.5 mg/kg/injection, schedule: Q01DX005 (ip), vehicle: other) was 101 % of control, the T/C (dose: 25.0 mg/kg/injection, schedule: Q01DX005 (ip), vehicle: other) was 101 % of control and the T/C (dose: 50.0 mg/kg/injection, schedule: Q01DX005 (ip), vehicle: other) was 111 % of control. The T/C (dose: 50.0 mg/kg/injection, schedule: Q01DX005 (ip), vehicle: saline + Tween-80 + alcohol) was 116 % of control.
In the case of `CCc1nnc2ccncn12`, the T/C (dose: 100.0 mg/kg/injection, schedule: Q04DX003 (ip), vehicle: saline with Tween-80) was 97 % of control, the T/C (dose: 200.0 mg/kg/injection, schedule: Q04DX003 (ip), vehicle: saline with Tween-80) was 90 % of control and the T/C (dose: 400.0 mg/kg/injection, schedule: Q04DX003 (ip), vehicle: saline with Tween-80) was 102 % of control.
In the case of `CCc1ccc(N2C(=O)C(CC(=O)O)SC23C(=O)N(Cc2ccccc2)c2ccccc23)cc1` (stereo not drawn), the T/C [5] was 94 % of control and the T/C [6] was 97 % of control.
`BrCc1cccnc1` was tested, and the T/C (dose: 12.5 mg/kg/injection, schedule: Q01DX005 (ip), vehicle: saline) was 103 % of control, the T/C (dose: 25.0 mg/kg/injection, schedule: Q01DX005 (ip), vehicle: saline) was 103 % of control and the T/C (dose: 50.0 mg/kg/injection, schedule: Q01DX005 (ip), vehicle: saline) was 103 % of control and 110 % of control.
With `[Cu].[NH-]C1CCCC2CCC[N-]C12.[NH-]C1CCCC2CCC[N-]C12` (stereo not drawn) the T/C (dose: 12.5 mg/kg/injection, schedule: Q04DX002 (ip), vehicle: saline with Tween-80) was 106 % of control.
With `COc1cc(OC)c2c(c1)C(=O)[C@]1(C)C3(C)OC(=O)C(c4ccccc43)[C@]21C` (stereo partly drawn) the T/C (dose: 100.0 mg/kg/injection, schedule: Q01DX001 (ip), vehicle: Klucel (hydroxypropylcellulose) (HPC)) was 102 % of control, the T/C (dose: 200.0 mg/kg/injection, schedule: Q01DX001 (ip), vehicle: Klucel (hydroxypropylcellulose) (HPC)) was 100 % of control and the T/C (dose: 400.0 mg/kg/injection, schedule: Q01DX001 (ip), vehicle: Klucel (hydroxypropylcellulose) (HPC)) was 105 % of control.
With `ClCC(Br)CBr` (stereo not drawn) (tested in a mixture with another compound) the T/C (dose: 12.5 mg/kg/injection, schedule: Q01DX009 (ip), vehicle: saline) was 96 % of control and the T/C [1] was 96 % of control.
For `C/[N+]([O-])=C1\C(C2COC(C)(C)O2)OC2OC(C)(C)OC12` (stereo not drawn), the T/C (dose: 100.0 mg/kg/injection, schedule: Q04DX002 (ip), vehicle: saline) was 97 % of control, the T/C (dose: 200.0 mg/kg/injection, schedule: Q04DX002 (ip), vehicle: saline) was 107 % of control and the T/C (dose: 400.0 mg/kg/injection, schedule: Q04DX002 (ip), vehicle: saline) was 105 % of control.
`COc1cc(C=Nc2ccc(C(=O)O)cc2)ccc1N(CCCl)CCCl` was tested, and the T/C (dose: 37.5 mg/kg/injection, schedule: Q04DX003 (ip), vehicle: saline with Tween-80) was 155 % of control and the T/C (dose: 50.0 mg/kg/injection, schedule: Q04DX003 (ip), vehicle: saline with Tween-80) was 90 % of control.
`CCCCCCC1CC2CCCCN2O1` (stereo not drawn) was tested, and the T/C (dose: 40.0 mg/kg/injection, schedule: Q01DX009 (ip), vehicle: Klucel (hydroxypropylcellulose) (HPC)) was 113 % of control, the T/C (dose: 80.0 mg/kg/injection, schedule: Q01DX009 (ip), vehicle: Klucel (hydroxypropylcellulose) (HPC)) was 107 % of control and the T/C (dose: 160.0 mg/kg/injection, schedule: Q01DX009 (ip), vehicle: Klucel (hydroxypropylcellulose) (HPC)) was 119 % of control.
`CC(C)(C)OC(=O)NC(CCCCNC(=O)OCC1c2ccccc2-c2ccccc21)C(=O)O` (stereo not drawn) was tested, and the T/C [10] was 103 % of control, the T/C [11] was 99 % of control and the T/C [12] was 103 % of control.
